Values quoted from earlier work in patent publication US20130209380A1, “MOISTURIZING COMPOSITION WITH SPF 30” (GALDERMA S.A., priority 2010, published 2013).

Test system: stratum corneum
Details: In vitro human skin model

- affinity and diffusion into the stratum corneum: good
Structure (SMILES): CCCCCCCCCCCCCCC[C@@H](O)[C@H](CO)NC(=O)C(O)CCCCCCCCCCCCCC (some centres unmarked) [pseudo ceramide 5, N-(2-hydroxyhexadecanoyl)sphinganine]
- effect on synthesis of ceramides 1-2-3: induction synthesis of ceramides 1-2-3
